Results from US11426441B2, “Composition comprising protein phosphatase 1 inhibitory peptide for treating vascular diseases” (BethphaGen Inc., priority 2016, dated 2022).
No end group written: not given here.

Tests used:
[1] = system: monocrotaline (MCT)-induced pulmonary arterial hypertension rats; assay: Monocrotaline-induced pulmonary arterial hypertension in rats; type: in vivo, rat
Method: (§1) Vascular smooth muscle cells (VSMCs) were homogenized in a minimal volume of 50 mM Tris-HCl, pH 7.4, supplemented with a broad-spectrum protease inhibitor cocktail (Calbiochem). The proteins were separated by SDS-PAGE and then transferred to polyvinylidene fluoride membranes (Schleicher & Schuell). After blocking with 5% (w/v) non-fat milk for 1 hour and washing with TBST, the membranes were incubated with antibodies against SERCA2a, SERCA2b (21st century biochemical), PCNA (abcam), GAPDH (Sigma-Aldrich), phospho-eNOS, eNOS, phospho-eIF2α, eIF2α (cell signaling), Vimentin, α-SMA, BMPR2 (Santa cruz), phospho-Akt, Akt (cell signaling), phospho-phospholamban (Merck), and Phospholamban (cell signaling). The membranes were then incubated with horseradish peroxidase-conjugated secondary antibodies (Jackson ImmunoResearch, West Grove, Pa., USA) and developed using a chemiluminescent substrate (Dogen). The blots were scanned and quantified using LAS software.
Eleven Sprague-Dawley rats (Damool science, Korea) weighing 250-300 g were administered with 60 mg/kg monocrotaline (MCT) (Sigma Aldrich) via intraperitoneal injection, and three animals of a control group were administered with 0.9% physiological saline. According to the dosing schedule, simultaneously with the administration of MCT, six animals for the […] were administered with ψPLB-SE peptide diluted in 300 μl via respiratory inhalation four times at intervals of one week. Five animals for the control group were administered with control peptide. The rats were sacrificed one week after the administration with last peptide, and then histological analysis and molecular biological experiments were conducted.
In order to indirectly measure the pulmonary artery pressure, right heart catheterization was conducted on the basis of a procedure reported in Nature Protocols in 2008. Rats were anesthetized, followed by tracheal intubation. The rats were placed on a homeothermic plate (AD Instruments, Spechbach, Germany) for the maintenance of body temperature during heart catheterization, and then kept breathing using an artificial respiratory device only for an animal (MiniVent type 845, Hugo Sachs Elektronik, March-Hugstetten, Germany). The chest of the rats was opened, and then high-fidelity 1.4 F micromanometer/Mikro-Tip Pressure catheter (Millar Instruments, Houston, Tex.) was allowed to infiltrate the tricuspid site, to measure the right ventricular end-systolic pressure, right ventricular end-diastolic pressure, left ventricular end-systolic pressure, and left ventricular end-diastolic pressure (RVESP, RVEDP, LVESP, LVEDP). Related values and data were collected and analyzed using the PowerLab data acquisition system (MPVS-Ultra Single Segment Foundation System, AD Instruments) and LabChart 7 for Windows software.
(§2) Pulmonary tissues were taken from animal models, fixed with 4% (w/v) paraformaldehyde for 5 days at room temperature, and then washed with PBS. After embedding the specimens in paraffin and sectioning the tissue blocks into a thickness of 7 μm, the sections were stained with haematoxylin and eosin (Sigma Aldrich) to investigate the vascular thickness and inflammation, and the sections were stained with Masson-trichrome (Sigma Aldrich) to investigate the extent of perivascular fibrosis, and then observed through an optical microscope.
(§3) The pulmonary tissues were obtained from rats and mice, and the cytokine levels in the tissues were quantitatively analyzed using human proinflammatory 10plex Meso Scale Diagnostics plates (MSD; Rockville, Md.).

[2] = system: RASMCs; assay: In vitro cell scratch assay (RASMC migration); type: cell-based, rat; settings: 3 μM peptide
Method: RASMCs isolated from the thoracic aorta were cultured in DMEM supplemented with 0.1% (v/v) FBS (Contractile) or in DMEM supplemented with 10% (v/v) FBS (Synthetic) in the presence of 3 μM of control peptide (Con; SEQ ID NO: 23) or ψPLB-SE peptide (SEQ ID NO: 2). Alternatively, RASMC cultured in DMEM supplemented with 0.1% (v/v) FBS were treated with 10 ng/ml of PDGF-BB (R&D Systems) (Synthetic) in the presence of 3 μM control or ψPLB-SE peptide. A region of the RASMC layer was removed by scratching the plate with a sterile 200 μL pipette tip. The cells were incubated for 12 hours or 24 hours and then observed under an 1×80 microscope (Olympus). The distance traveled by the cells was measured using MetaMorph software.

[3] = system: PLB; assay: PLB phosphorylation in RASMCs (western blotting); type: cell-based, rat
Method: FIG. 7. ψPLB-SE attenuates PLB dephosphorylation in VSMCs. The proteins samples shown in FIG. 2C were subjected to western blotting. Antibodies against PLB or phospho-PLB were used. Data are expressed as the means±SD (n=3-4; *, P<0.05).
as §1

[4] = system: monocrotaline (MCT)-induced pulmonary arterial hypertension mice; assay: Monocrotaline-induced pulmonary arterial hypertension in mice; type: in vivo, mouse
Method: as §1
As for mice, fifteen C57BL/6 mice (Damool science, Korea) weighing 25-30 g were treated with 600 mg/kg MCT five times a week. Out of the mice, eight animals for a comparison group were administered with ψPLB-SE peptide four times at intervals of one week from day 15 after the administration of MCT. Five animals for a control group were administered with a control peptide. The mice were sacrificed one week after last administration, and then histological analysis and molecular biological experiments were conducted.
as §2, §3
Quantitative RT-PCR was performed using SYBR premix Ex Taq™ (Takara), though which the transcriptional levels of target genes were analyzed. RNA was isolated from pulmonary tissues using trizole (ambion), and synthesized into cDNA. Quantitative RT-PCR conditions were 40 cycles: 10 sec at 94° C., 30 sec at 59° C., and 10 sec at 72° C.

RAETIEMPQ (not fully specified) [ψPLB-SE, 9-mer PP1 decoy peptide mimicking phosphorylated PLB; conjugated via GGG linker to cell penetrating peptide dNP2 or TAT]
right ventricular end-systolic pressure ([1]; MCT 60 mg/kg rats, peptide via respiratory inhalation once a week for 4 weeks, MCT 67.4±6.4, sham 33.7±1.7): 33.5±5.8
expression degree of BMPR2 ([1]; rat pulmonary tissue): restored
fibrosis extent of vascular adventitia (Masson-trichrome staining) ([1]; rat pulmonary tissue): reduced
increase in vascular thickening (hematoxylin and eosin staining) ([1]; rat pulmonary tissue): attenuated
phosphorylation level of eIF2α ([1]; rat pulmonary tissue): restored
proinflammatory cytokines (GM-CSF, TNF-α, IL-17, IL-1β, IL-6, TGF-β) levels ([1]; rat pulmonary tissue): restored to nearly to the normal levels
eNOS phosphorylation level (eNOS activity) ([1]; rat pulmonary tissue proteins): increased
increases in the expression of vimentin and α-SMA ([1]; rat pulmonary tissue, protein quantitative analysis): attenuated
increased migratory activity of RASMCs ([2]; synthetic conditions (10% FBS)): inhibited
increased migratory activity of RASMCs ([2]; treatment with PDGF-BB 10 ng/ml): inhibited
dephosphorylation of PLB [3]: inhibited
expression level of SERCA2a ([4]; mouse pulmonary tissue): increased
fibrosis extent of vascular adventitia (Masson-trichrome staining) ([4]; mouse pulmonary tissue): attenuated
increases in the protein and mRNA expression of TGF-β, Collagen 1, vimentin, and α-SMA ([4]; mouse pulmonary tissue): attenuated
proinflammatory cytokines (GM-CSF, TNF-α, IL-17, IL-1β, IL-6, TGF-β) levels ([4]; mouse pulmonary tissue): restored to nearly to the normal levels
eNOS phosphorylation level (eNOS activity) ([4]; mouse pulmonary tissue proteins): increased
increase in vascular thickening (hematoxylin and eosin staining) ([4]; mouse pulmonary tissue, MCT 600 mg/kg, peptide via respiratory inhalation once a week for 4 weeks from the second week): attenuated
increase in monocyte infiltration ([4]; mouse pulmonary tissue, hematoxylin and eosin staining): attenuated
mRNA expression levels of TNF-α, IL-17, IL-1β, F4/80, and MCP-1 ([4]; mouse pulmonary tissue, quantitative RT-PCR): reduced
